Each block holds one compound with its values, some of them ahead of it.
Legend:
[1] = Kinetic parameter kcat for hydrolysis at 25 degrees Celsius using phosphate buffer in reaction with 3-[2-(4-imidazolyl)ethyl] […]
[2] = Ratio of kcat and Km was determined
[3] = Kinetic parameter Km for hydrolysis at 25 degrees Celsius using phosphate buffer in reaction with 3-[2-(4-imidazolyl)ethyl] […]
[4] = Ratio of kcat and kun was determined
[5] = Kinetic parameter Kun for hydrolysis at 25 degrees Celsius using phosphate buffer in reaction with 3-[2-(4-imidazolyl)ethyl] […]

Structure (SMILES): CC(C)(C)OC(=O)NCC(=O)Oc1ccc([N+](=O)[O-])cc1
k cat [1]: 0.0312 s⁻¹
k cat/Km [2]: 80.5 M⁻¹ s⁻¹
Km [3]: 387 µM
k cat/Kuncat [4]: 242
Kun [5]: 0.000129 s⁻¹

Structure (SMILES): CC(=O)NCC(=O)Oc1ccc([N+](=O)[O-])cc1
k cat [1]: 0.0519 s⁻¹
k cat/Km [2]: 35.4 M⁻¹ s⁻¹
Km [3]: 1470 µM
k cat/Kuncat [4]: 92
Kun [5]: 0.000562 s⁻¹

Structure (SMILES): CC(=O)NC(C)C(=O)Oc1ccc([N+](=O)[O-])cc1 (stereo not given)
k cat [1]: 0.0371 s⁻¹
k cat/Km [2]: 27.5 M⁻¹ s⁻¹
Km [3]: 1350 µM
k cat/Kuncat [4]: 26
Kun [5]: 0.00144 s⁻¹

The remaining lines, values ahead:

k cat [1]: 0.011 s⁻¹
k cat/Km [2]: 73.9 M⁻¹ s⁻¹
Km [3]: 148 µM
k cat/Kuncat [4]: 13
Kun [5]: 0.000861 s⁻¹
Structure (SMILES): CC(=O)N[C@@H](Cc1ccccc1)C(=O)Oc1ccc([N+](=O)[O-])cc1

k cat [1]: 0.0238 s⁻¹
k cat/Km [2]: 49.7 M⁻¹ s⁻¹
Km [3]: 478 µM
k cat/Kuncat [4]: 28
Kun [5]: 0.000861 s⁻¹
Structure (SMILES): CC(=O)N[C@H](Cc1ccccc1)C(=O)Oc1ccc([N+](=O)[O-])cc1
